# Laboratory results from ChEMBL document CHEMBL2413026, “Synthesis and biological evaluation against Leishmania amazonensis of a series of alkyl-substituted benzophenones” (Bioorg Med Chem, 2013).
# Legend:
# [1] = Selectivity index, ratio of CC50 for mouse peritoneal macrophages to IC50 for promastigote form of Leishmania amazonensis MHOM/BR/71973/M2269; type: functional
# [2] = Cytotoxicity against mouse peritoneal macrophages after 72 hrs by MTT assay; type: cell-based, Peritoneal macrophage cell
# [3] = tested on: Leishmania amazonensis; assay: Leishmanicidal activity against promastigote form of Leishmania amazonensis MHOM/BR/71973/M2269 after 72 hrs by cell counting; type: functional, organism-based; details: MHOM/BR/71973/M2269, 72 h
# [4] = tested on: Leishmania amazonensis; assay: Ratio of 4,4'-dihydroxybenzophenone IC50 to compound IC50 for spromastigote forms of Leishmania amazonensis MHOM/BR/71973/M2269 after 72 hrs by cell counting; type: functional
SMILES,Ratio CC50/IC50 [1],CC50 at 72 h [2] [µg/mL],IC50 [3] [µg/mL],Ratio IC50 [4]
C[C@@H]1[C@H](O)[C@@H](C)/C=C/C=C/C=C/C=C/C=C/C=C/C=C/[C@H](O[C@@H]2O[C@H](C)[C@@H](O)[C@H](N)[C@@H]2O)C[C@@H]2O[C@](O)(C[C@@H](O)C[C@@H](O)[C@H](O)CC[C@@H](O)C[C@@H](O)CC(=O)O[C@H]1C)C[C@H](O)[C@H]2C(=O)O [AMPHOTERICIN B],5.32,25,4.7,–
CC(C)=CCOc1ccc(C(=O)c2ccc(OCC=C(C)C)cc2)cc1,26.93,> 160,5.94,250
COc1ccc(C(=O)c2ccccc2)c(O)c1 [OXYBENZONE],–,24.6,4.9,–
CCCCOc1ccc(C(=O)c2ccccc2)cc1,–,28.9,8.56,–
N=C(N)c1ccc(OCCCCCOc2ccc(C(=N)N)cc2)cc1 [PENTAMIDINE],8.68,3.82,0.44,–
CCCCOc1ccc(C(=O)c2ccc(OCCCC)cc2)cc1,–,> 160,23.8,–
COc1ccc(C(=O)c2ccccc2)cc1,–,28,5.05,–
CC(C)=CCOc1ccc(C(=O)c2ccccc2)cc1,–,87.1,7.82,–
"O=C(c1ccccc1)c1ccc(O)cc1O [2,4-DIHYDROXYBENZOPHENONE]",–,> 160,29,–
O=C(c1ccccc1)c1ccc(O)cc1,–,> 160,40.9,–
CC(C)=CCOc1ccc(C(=O)c2ccccc2)c(O)c1,19.86,140,7.05,–
CCCCOc1ccc(C(=O)c2ccccc2)c(O)c1,–,40.6,9.8,–
O=C(c1ccc(O)cc1)c1ccc(O)cc1,–,> 160,121,–
